Test results from patent US20090176791A1, “Diaryl Ureas for Treating Pulmonary Hypertension” (BAYER HEALTHCARE AG, priority 2005, published 2009).

Tested on: monocrotaline-treated rats with pulmonary hypertension
Conditions: MCT-induced pulmonary arterial hypertension, 10 mg/kg by gavage once daily from day 14 to day 28 after MCT
Method: The effects of the compounds and drug combinations according to the invention are tested in vitro on isolated rat pulmonary arteries and in vivo in monocrotaline-treated rats with pulmonary hypertension.
Male Sprague Dawley rats (250-300 g) are treated with monocrotaline 60 mg/kg subcutaneously (=day 0). On day 14 after monocrotaline injection treatment the compound/combination to be tested is administered. On day 28 hemodynamic parameters, i.e. right ventricular pressure, systemic blood pressure, heart rate, arterial and venous oxygen saturation are measured and compared with untreated control animals.

In the case of `CNC(=O)c1cc(Oc2ccc(NC(=O)Nc3ccc(Cl)c(C(F)(F)F)c3)cc2)ccn1.Cc1ccc(S(=O)(=O)O)cc1` [p-toluenesulfonic acid salt of 4{4-[3-(4-chloro-3-trifluoromethylphenyl)-ureido]-phenoxy}-pyridine-2-carboxylic acid methyl amide], the “right ventricle/left ventricle+septum ratio (right ventricular hypertrophy)” value (day 28) is reported as 0.26±0.01 and the “right ventricular systolic pressure” value (measured on day 28, mean±SEM) is reported as 36.50±1.50 mmHg.
